Measurements reported in ChEMBL document CHEMBL3046535, “Evaluation of some weed control treatments for long season weed control in maize (Zea mays L.) under zero and minimum tillage at Samaru, in Nigeria” (Crop Prot, 2008).

Columns and labels:
Format in all cases: organism-based
Zea mays [1] = experiment: Toxicity in Zea mays TZBSR (maize) assessed as plant height at 1.5 kg a.i/ha applied post-emergence after ridgining at minimum tillage conditions using Knapsack sprayer measured 9 weeks post treatment; details: in vivo, other, 1512 h
Zea mays [2] = experiment: Toxicity in Zea mays TZBSR (maize) assessed as crop stand count at 1.5 kg a.i/ha applied post-emergence after ridgining at minimum tillage conditions using Knapsack sprayer measured 6 weeks post treatment; details: in vivo, other, 1008 h
Zea mays [3] = experiment: Toxicity in Zea mays TZBSR (maize) assessed as crop vigour at 1.5 kg a.i/ha applied post-emergence after ridgining at minimum tillage conditions using Knapsack sprayer; details: in vivo, other
Zea mays [4] = experiment: Toxicity in Zea mays TZBSR (maize) assessed as crop injury at 1.5 kg a.i/ha applied post-emergence after ridgining at minimum tillage conditions using Knapsack sprayer; details: in vivo, other

Compound	Activity (Zea mays [1]) [m]	Activity (Zea mays [2])	Activity (Zea mays [3])	Activity (Zea mays [4])
O=C(O)COc1ccc(Cl)cc1Cl [2,4-DICHLOROPHENOXYACETIC ACID]	3.33	Non-toxic	Non-toxic	Non-toxic
CCNc1nc(Cl)nc(NC(C)C)n1 [ATRAZINE]	3.35		Non-toxic	Non-toxic
